The target in one assay is mouse TAAR1 (Mus musculus (Mouse), UniProt Q923Y8). As to the kind of experiment: Radioligand binding assay on mouse TAAR1. The note with it: mouse TAAR1, membranes of stably transfected HEK-293 cells; first value of mouse/rat pair. Summed up: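 Membranes from HEK293 cells stably expressing mouse TAAR1, in HEPES-NaOH pH 7.4; displacement of ³H-(S)-4-[(ethyl-phenyl-amino)-methyl]-4,5-dihydro-oxazol-2-ylamine, nonspecific binding with 10 μM unlabeled ligand.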

For a further assay, the target named is rat TAAR1 (Rattus norvegicus (Rat), UniProt Q923Y9). Briefly: Radioligand binding assay on rat TAAR1. The settings on record: rat TAAR1, membranes of stably transfected HEK-293 cells; second value of mouse/rat pair. Summed up:
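Competition binding with [3H]-(S)-4-[(ethyl-phenyl-amino)-methyl]-4,5-dihydro-oxazol-2-ylamine on membranes from HEK293 cells stably expressing rat TAAR1, in HEPES-NaOH pH 7.4. Compounds spanned 10 pM-10 μM in duplicate, incubated 1 h at 4 °C, with nonspecific binding set by 10 μM unlabeled ligand. Filtration followed by scintillation counting.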

Sequence of mouse TAAR1 (Q923Y8 whole entry): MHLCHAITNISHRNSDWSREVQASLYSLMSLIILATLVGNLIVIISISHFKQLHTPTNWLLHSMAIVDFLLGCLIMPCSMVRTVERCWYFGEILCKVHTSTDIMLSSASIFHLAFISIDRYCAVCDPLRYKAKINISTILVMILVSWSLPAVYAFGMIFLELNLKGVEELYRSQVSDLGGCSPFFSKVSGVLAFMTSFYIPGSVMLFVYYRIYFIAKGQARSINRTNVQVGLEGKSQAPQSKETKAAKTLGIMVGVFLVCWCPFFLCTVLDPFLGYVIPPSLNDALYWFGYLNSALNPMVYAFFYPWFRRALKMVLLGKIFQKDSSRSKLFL
Sequence of rat TAAR1 (Q923Y9 whole entry): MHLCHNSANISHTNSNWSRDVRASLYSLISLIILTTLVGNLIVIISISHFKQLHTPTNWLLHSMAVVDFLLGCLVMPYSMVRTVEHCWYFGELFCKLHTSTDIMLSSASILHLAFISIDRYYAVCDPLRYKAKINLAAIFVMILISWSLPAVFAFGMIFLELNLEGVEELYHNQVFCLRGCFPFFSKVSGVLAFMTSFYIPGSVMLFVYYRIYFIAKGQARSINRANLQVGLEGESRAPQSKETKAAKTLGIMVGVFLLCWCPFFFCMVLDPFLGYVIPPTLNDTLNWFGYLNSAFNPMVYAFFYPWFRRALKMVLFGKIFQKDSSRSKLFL

Regarding `N[C@H]1CCc2cc(NC(=O)c3cnc(Cl)c(Cl)c3)ccc2C1` [Example 41, (S)—N-(6-Amino-5,6,7,8-tetrahydronaphthalen-2-yl)-5,6-dichloronicotinamide], the inhibitory constant (Ki) on mouse TAAR1 and at rat TAAR1 was 0.0031 µM throughout.

Turning to `Cn1nc(C(=O)Nc2ccc3c(c2)OC[C@H](N)C3)cc1-c1cccs1` [Example 85, (R)—N-(3-Aminochroman-7-yl)-1-methyl-5-(thiophen-2-yl)-1H-pyrazole-3-carboxamide], the values for the inhibitory constant (Ki) at mouse TAAR1 and on rat TAAR1 were 0.0009 µM and 0.0061 µM, respectively.

As for `CCCc1cc(C(=O)Nc2ccc3c(c2)OCC(N)C3)nn1CC(F)F` (stereo not drawn) [Example 8, N-(3-Aminochroman-7-yl)-1-(2,2-difluoroethyl)-5-propyl-1H-pyrazole-3-carboxamide], the inhibitory constant (Ki) (as a rule, the equilibrium dissociation constant of an inhibitor or competing ligand from its target) at mouse TAAR1 was 0.0198 µM; on rat TAAR1, 0.01 µM.

On to `CCCc1cc(C(=O)Nc2ccc3c(c2)CC[C@H](N)C3)nn1CC(F)F` [Example 5, (S)—N-(6-Amino-5,6,7,8-tetrahydronaphthalen-2-yl)-1-(2,2-difluoroethyl)-5-propyl-1H-pyrazole-3-carboxamide], for which the Ki stood at 0.0067 µM on mouse TAAR1 and 0.0021 µM on rat TAAR1.

On to `N[C@H]1CCc2cc(NC(=O)c3cnn(-c4ccc(Cl)c(Cl)c4)c3)ccc2C1` [Example 28, (S)—N-(6-Amino-5,6,7,8-tetrahydronaphthalen-2-yl)-1-(3,4-dichlorophenyl)-1H-pyrazole-4-carboxamide], for which the Ki turned out to be 0.0007 µM at mouse TAAR1 and 0.0003 µM at rat TAAR1.

As to `CCCc1cc(C(=O)Nc2ccc3c(c2)OC[C@H](N)C3)nn1CC(F)F` [Example 10, (R)—N-(3-Aminochroman-7-yl)-1-(2,2-difluoroethyl)-5-propyl-1H-pyrazole-3-carboxamide], the inhibition constant Ki came out at 0.0111 µM at mouse TAAR1 and 0.0034 µM on rat TAAR1.

For the molecule `CCc1n[nH]c(C(=O)Nc2ccc3c(c2)CC[C@H](N)C3)c1C` [Example 51, (S)—N-(6-Amino-5,6,7,8-tetrahydronaphthalen-2-yl)-3-ethyl-4-methyl-1H-pyrazole-5-carboxamide], the Ki at mouse TAAR1 stood at 0.0062 µM; at rat TAAR1, 0.0046 µM.

Take `CCOc1ccc(NC(=O)c2ccc3c(c2)CCC(N)C3)cn1` (stereo not drawn) [Example 31, 6-Amino-N-(6-ethoxypyridin-3-yl)-5,6,7,8-tetrahydronaphthalene-2-carboxamide]: the Ki stood at 0.0247 µM at mouse TAAR1 and 0.0434 µM at rat TAAR1.

As to `CCc1n[nH]c(C(=O)Nc2ccc3c(c2)OC[C@H](N)C3)c1C` [Example 88, (R)—N-(3-Aminochroman-7-yl)-3-ethyl-4-methyl-1H-pyrazole-5-carboxamide], the inhibitory constant (Ki) came to 0.0083 µM at mouse TAAR1 and 0.0119 µM at rat TAAR1.

As for `N[C@H]1CCc2cc(Nc3cccc(Cl)c3)ccc2C1` [Example 68, (S)—N6-(3-Chlorophenyl)-1,2,3,4-tetrahydronaphthalene-2,6-diamine], the Ki on mouse TAAR1 was 0.019 µM; on rat TAAR1, 0.0099 µM.

Turning to `NC1CCc2cc(NC(=O)c3ccnc(C(F)(F)F)c3)ccc2C1` (stereo not drawn) [Example 1, N-(6-Amino-5,6,7,8-tetrahydronaphthalen-2-yl)-2-(trifluoromethyl)isonicotinamide], the Ki worked out at 0.0159 µM on mouse TAAR1 and 0.0072 µM on rat TAAR1.

Turning to `N[C@H]1CCc2cc(NC(=O)c3ccnc(C(F)(F)F)c3)ccc2C1` [Example 45, (S)—N-(6-Amino-5,6,7,8-tetrahydronaphthalen-2-yl)-2-(trifluoromethyl)isonicotinamide], the inhibition constant Ki on mouse TAAR1 is 0.0117 µM; on rat TAAR1, 0.0063 µM.

As to `CCOc1[nH]nc(C(=O)Nc2ccc3c(c2)OC[C@H](N)C3)c1C` [Example 81, (R)—N-(3-Aminochroman-7-yl)-5-ethoxy-4-methyl-1H-pyrazole-3-carboxamide], the figures for the Ki on mouse TAAR1 and on rat TAAR1 were 0.0082 µM and 0.0277 µM, respectively.

Regarding `N[C@H]1CCc2cc(NC(=O)c3cc(Cl)nc(Cl)c3)ccc2C1` [Example 46, (S)—N-(6-Amino-5,6,7,8-tetrahydronaphthalen-2-yl)-2,6-dichloroisonicotinamide], the inhibitory constant (Ki) at mouse TAAR1 is 0.0042 µM; at rat TAAR1 it was 0.0022 µM.

Take `N[C@H]1CCc2cc(Nc3ccc(F)cc3)ccc2C1` [Example 66, (S)—N6-(4-Fluorophenyl)-1,2,3,4-tetrahydronaphthalene-2,6-diamine]: the results for the Ki at mouse TAAR1 and at rat TAAR1 were 0.171 µM and 0.024 µM, respectively.
